Common to all, as to type: cell-based
Data set [1] has as its target T1, ATP-dependent translocase ABCB1 (Homo sapiens, UniProt P08183). Put plainly: Inhibition of human MDR1-mediated rhodamine efflux in mouse L5178 cells assessed as fluorescence activity ratio at 40 ug/mL by flow cytometry relative to untreated control.
Data set [2] has as its target T1, ATP-dependent translocase ABCB1. Description: Inhibition of human MDR1-mediated rhodamine efflux in mouse L5178 cells assessed as mean fluorescence intensity at 40 ug/mL by flow cytometry. Background: A flow cytometer gives signals particle by particle.
For data set [3] the target is unchanged. Description: Inhibition of human MDR1-mediated rhodamine efflux in mouse L5178 cells assessed as mean fluorescence intensity at 4 ug/mL by flow cytometry.
Data set [4] shares this target. Put plainly: Inhibition of human MDR1-mediated rhodamine efflux in mouse L5178 cells assessed as fluorescence activity ratio at 4 ug/mL by flow cytometry relative to untreated control.

T1 sequence (P08183 whole entry): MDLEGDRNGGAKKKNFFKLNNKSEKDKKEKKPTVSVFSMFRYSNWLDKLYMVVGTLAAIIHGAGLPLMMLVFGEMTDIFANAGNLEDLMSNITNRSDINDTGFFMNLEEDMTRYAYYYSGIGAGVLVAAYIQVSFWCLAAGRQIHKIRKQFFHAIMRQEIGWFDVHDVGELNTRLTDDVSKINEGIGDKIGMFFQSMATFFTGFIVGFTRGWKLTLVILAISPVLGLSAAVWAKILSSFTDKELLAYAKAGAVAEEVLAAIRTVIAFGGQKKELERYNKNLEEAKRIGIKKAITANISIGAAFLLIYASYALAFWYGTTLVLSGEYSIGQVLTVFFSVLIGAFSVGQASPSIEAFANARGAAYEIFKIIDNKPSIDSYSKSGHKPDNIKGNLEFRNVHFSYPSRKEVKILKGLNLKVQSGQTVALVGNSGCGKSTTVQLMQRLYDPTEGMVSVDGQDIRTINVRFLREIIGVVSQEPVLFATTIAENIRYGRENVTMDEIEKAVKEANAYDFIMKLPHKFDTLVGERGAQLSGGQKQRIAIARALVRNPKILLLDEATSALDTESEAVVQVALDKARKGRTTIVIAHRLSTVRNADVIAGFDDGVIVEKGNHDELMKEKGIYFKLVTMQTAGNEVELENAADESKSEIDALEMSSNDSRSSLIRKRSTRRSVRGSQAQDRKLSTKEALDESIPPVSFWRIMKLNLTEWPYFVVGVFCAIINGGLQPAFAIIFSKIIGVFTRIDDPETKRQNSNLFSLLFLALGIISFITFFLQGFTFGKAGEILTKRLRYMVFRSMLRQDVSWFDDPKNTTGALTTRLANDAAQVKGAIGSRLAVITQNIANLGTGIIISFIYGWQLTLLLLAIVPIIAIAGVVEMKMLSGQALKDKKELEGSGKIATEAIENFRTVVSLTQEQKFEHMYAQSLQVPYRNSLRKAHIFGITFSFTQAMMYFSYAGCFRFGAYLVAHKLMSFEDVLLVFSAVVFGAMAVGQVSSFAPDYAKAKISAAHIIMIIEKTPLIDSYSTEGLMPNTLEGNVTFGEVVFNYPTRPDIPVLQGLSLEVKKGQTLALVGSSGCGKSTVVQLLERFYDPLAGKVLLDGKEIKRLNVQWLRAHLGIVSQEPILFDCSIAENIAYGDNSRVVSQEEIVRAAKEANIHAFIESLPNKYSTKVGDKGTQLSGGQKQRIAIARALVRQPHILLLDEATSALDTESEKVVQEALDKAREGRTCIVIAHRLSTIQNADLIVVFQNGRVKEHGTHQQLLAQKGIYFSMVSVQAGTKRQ

As for `CC(=O)OC1[C@]2(O)CC3=C([C@H](OC(C)=O)C(C)(C)C3=O)[C@@]1(C)[C@@H](OC(C)=O)[C@@]1(O)C[C@H](C)[C@H](OC(=O)c3ccccc3)[C@@H]1[C@H]2OC(C)=O` (stereo partly drawn) [EUPHOPORTLANDOL A], the Ratio in data set [1] is listed as 40.3; in data set [4] it was 2.3. For the same compound, the Flu intensity is given as 880.2 in data set [2] and 49.8 in data set [3].
Taken in the same sequence, the figures for `CC(=O)OC1[C@@]2(C)[C@@H]3[C@@H](C[C@]1(O)[C@H](OC(C)=O)[C@H]1[C@@H](OC(=O)c4ccccc4)[C@@H](C)C[C@]1(O)[C@@H]2OC(C)=O)C(=O)C(C)(C)[C@H]3OC(C)=O` (stereo partly drawn) [EUPHOPORTLANDOL B] were 30.7, 1.4, 670.5 and 30.8.
